Test results: paper PMC3458012, “Gliadin Peptides Induce Tissue Transglutaminase Activation and ER-Stress through Ca^2+ Mobilization in Caco-2 Cells” (PLoS ONE, 2012)
Ends that are not written are not given here.

Legend:
[1] = tested on: intracellular tTG; test: In situ tTG transamidating activity, pentylamine-biotin incorporation, microscopy; format: cell-based; conditions: Caco-2 cells; for In situ tTG crosslinking activity (fluorescence of pentylamine-biotin incorporation): 30 min, complete medium, peptides 20 µg/ml, ionomycin 10 µM, THP 1 µM, 0.5 mM pentylamine-biotin
Method: (§1) In situ tTG activity was visualized by using the tTG substrate pentylamine-biotin (Euroclone, Milan, Italy) as reported elsewhere. Caco-2 cells were treated for 30 min with 10 µM ionomycin (Sigma-Aldrich, Milan, Italy), or with different amounts of gliadin peptides, or with 1 µM THP, in the presence of 0.5 mM pentylamine-biotin, before being processed for microscopy observation. To visualize biotin-labeled p31–43 and p57–68 in the cells, peptides needed to be used at a concentration of 0.2 mM. […] Pentylamine-biotin was also used to quantify the tTG transamidating activity by a microplate assay. Briefly, after 30 min of treatment with 20 µg/ml gliadin peptides, or with 1 µM THP, cells were lysed and proteins (25 µg) were coated into the wells of a 96-well plate. The wells were blocked with 10% bovine serum albumin then incubated with 1∶5000 peroxidase-conjugated streptavidin (Euroclone) in 5% bovine serum albumin. To reveal peroxidase activity, 3,3′,5,5′-tetramethylbenzidine (Sigma-Aldrich, Milan, Italy) was added to each well and, after stopping the reaction with H2SO4, absorbances were read at 450 nm.

[2] = tested on: intracellular tTG; test: Microplate assay of tTG transamidating activity on cell lysates; format: cell-based; conditions: Caco-2 cells
Method: as §1

[3] = tested on: Caco-2 cells; format: cell-based
Method: Intracellular Ca^2+ concentration ([Ca^2+]i) was measured in Caco-2 cells by single cell computer-assisted videoimaging using the Ca^2+ indicator Fura-2 acetoxymethyl ester, as previously described, [22]. Gliadin peptides were loaded at concentrations between 0.2 and 20 µg/ml for 30 min at 37°C in normal Krebs solution containing the following (in mM): 5.5 KCl, 160 NaCl, 1.2 MgCl2, 1.5 CaCl2, 10 glucose, and 10 Hepes-NaOH, pH 7.4. To selectively deplete intracellular Ca^2+ stores, experiments were performed in the presence of thapsigargin (THP) (1 µM), an irreversible and selective inhibitor of the sarco(endo)plasmic reticulum Ca^2+ ATPase, and in the presence of the mitochondrial uncoupler carbonylcyanide-p-trifluoromethoxyphenylhydrazone (FCCP) (300 nm).

[4] = tested on: GRP78; test: GRP78 protein level by western blot; format: cell-based; conditions: Caco-2 cells, 24 h, THP 1 µM, normalized to tubulin
Method: (§2) Cells were washed with phosphate-buffered saline solution and mechanically harvested in lysis buffer, consisting of 20 mM Tris-HCl, pH 7.5, 150 mM NaCl, 1 mM EDTA, 1 mM dithiotreitol, 0.1% sodium dodecyl sulphate, 1% triton X-100, 1 mM ortovanadate, and inhibitors cocktail (Sigma-Aldrich). After 30 min of incubation on ice, cell extracts were centrifuged at 12,000 g for 30 min at 4°C, to remove cell debris, then 75 µg of total proteins were separated by 10% sodium dodecyl sulphate-polyacrylamide gel electrophoresis and transferred to a membrane. To detect tTG, the blot was treated as described elsewhere. To detect GRP78 and CHOP, the blots were treated with 5% skim milk in phosphate-buffered saline overnight at 4°C, then incubated for 2 h with an anti-GRP78 rabbit polyclonal antibody (H-129) (1∶500; Santa Cruz, CA, USA), or with an anti-CHOP mouse monoclonal antibody (1∶1,500; Santa Cruz), respectively, in phosphate-buffered saline containing 0.1% tween-20. After washing, the blots were incubated for 1 h at room temperature with an anti-rabbit-peroxidase secondary antibody (1∶10,000; Bio-Rad Laboratories), or with an anti-mouse-peroxidase secondary antibody (1∶10,000; Bio-Rad Laboratories), respectively.

[5] = tested on: GRP78; test: GRP78 mRNA by real-time RT-PCR; format: cell-based, human; conditions: Caco-2 cells, 24 h, peptides 20 µg/ml, THP 1 µM, normalized to GAPDH
[6] = tested on: CHOP; test: CHOP protein level by western blot; format: cell-based; conditions: Caco-2 cells, 24 h, peptides 20 µg/ml, THP 1 µM, normalized to tubulin
Method: as §2

[7] = tested on: CHOP; test: CHOP mRNA by real-time RT-PCR; format: cell-based, human; conditions: Caco-2 cells, 24 h, peptides 20 µg/ml, THP 1 µM, normalized to GAPDH

## NCCSSCCN [cystamin]
[1]; cystamin 200 µM added 5 min before treatment
  Inhibition of in situ tTG activation induced by ionomycin and p31–43: inhibited the tTG activation
[2]; microplate assay, three experiments in triplicate
  Effect of cystamin pretreatment on tTG activity induced by ionomycin or p31–43: significant reduction of tTG activity

## QLQPFPQPQLPY [p57–68]
[3]
  EC50 of [Ca2+]i increase: 0.9 µg/mL

## PLIRPLLARPAK [pHTP, irrelevant control peptide, 537–548 region of the human thyroid peroxidase]
[1]
  In situ tTG crosslinking activity (fluorescence of pentylamine-biotin incorporation): fluorescence intensity did not increase

## QQPQDAVQPF [pCTR, irrelevant control peptide … from durum wheat]
[3]; Caco-2 cells, 20 µg/ml, normal Krebs solution
  [Ca2+]i increase with respect to the basal value: did not affect
[1]
  In situ tTG crosslinking activity (fluorescence of pentylamine-biotin incorporation): fluorescence intensity did not increase

## C/C=C(/C)C(=O)O[C@H]1C(C)=C2[C@H]([C@@H]1OC(=O)CCCCCCC)[C@@](C)(OC(C)=O)C[C@H](OC(=O)CCC)[C@@]1(O)[C@H]2OC(=O)[C@@]1(C)O [THP, thapsigargin]
[1]
  In situ tTG crosslinking activity (fluorescence of pentylamine-biotin incorporation): sufficient to activate intracellular tTG
[1]; phosphate-buffered saline without Ca2+ and Mg2+
  In situ tTG activation in Ca2+-free medium: sufficient to activate intracellular tTG
[4]
  Increase of GRP78 protein expression: about five-fold
[5]
  Increase of GRP78 mRNA expression with respect to untreated cells: about 30 fold
[2]; 30 min, peptides 20 µg/ml or THP 1 µM, 25 µg lysate, absorbance 450 nm, at least 3 experiments in triplicate
  Increase of tTG activity versus cells exposed to pentylamine-biotin alone: similar
[6]
  Increase of CHOP protein expression: three-fold
[7]
  Increase of CHOP mRNA expression: about 14 fold

## LPQFEEIRNLALQTLPAM [p229–246]
[1]
  In situ tTG crosslinking activity (fluorescence of pentylamine-biotin incorporation): fluorescence intensity did not increase

## LGQQQPFPPQQPY [p31–43]
[3]
  EC50 of [Ca2+]i increase: 0.2 µg/mL
